Assay results taken from article PMC4177084 (Journal of Thyroid Research, 2014).

Assays:
PDGFRα(V561D) = biological target: T1, PDGFRα(V561D) (Homo sapiens, UniProt P16234, V561D); assay: Cell free kinase inhibition assay; assay type: biochemical
T1 construct: purchased Carna Biosciences, Inc. (Kobe, Japan)

FGFR4 = biological target: T2, FGFR4 (Homo sapiens, UniProt P22455); assay: Cell free kinase inhibition assay; assay type: biochemical
T2 construct: purchased Carna Biosciences, Inc. (Kobe, Japan)
T2 sequence (P22455 22-802): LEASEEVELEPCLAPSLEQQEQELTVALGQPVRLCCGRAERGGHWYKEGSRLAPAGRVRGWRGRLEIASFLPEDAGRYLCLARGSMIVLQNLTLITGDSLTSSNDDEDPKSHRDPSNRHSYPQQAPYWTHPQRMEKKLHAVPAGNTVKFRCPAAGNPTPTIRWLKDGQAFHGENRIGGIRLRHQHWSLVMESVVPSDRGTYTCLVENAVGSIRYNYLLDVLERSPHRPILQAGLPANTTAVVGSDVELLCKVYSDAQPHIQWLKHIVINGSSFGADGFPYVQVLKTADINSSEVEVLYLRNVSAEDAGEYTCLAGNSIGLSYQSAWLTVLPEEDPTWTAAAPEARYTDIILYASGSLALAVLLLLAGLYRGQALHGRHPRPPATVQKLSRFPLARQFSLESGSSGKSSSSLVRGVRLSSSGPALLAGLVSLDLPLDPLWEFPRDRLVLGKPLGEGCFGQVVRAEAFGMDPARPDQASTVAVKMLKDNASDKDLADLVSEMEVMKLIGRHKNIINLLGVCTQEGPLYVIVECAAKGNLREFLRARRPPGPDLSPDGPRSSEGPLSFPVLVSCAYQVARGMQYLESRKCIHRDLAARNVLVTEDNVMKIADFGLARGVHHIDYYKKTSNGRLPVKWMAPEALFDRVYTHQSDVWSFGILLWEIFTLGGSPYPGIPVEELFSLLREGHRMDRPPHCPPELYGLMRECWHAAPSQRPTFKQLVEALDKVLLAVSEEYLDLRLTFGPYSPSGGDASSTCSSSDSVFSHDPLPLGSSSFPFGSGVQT

TCO-1 cells = assay: Antiproliferation assay (WST-8); assay type: cell-based; conditions: Homo sapiens, 72 h; TCO-1 (ATC), antiproliferative, 3 days
CDK2/CycE1 = biological target: T3, CDK2/CycE1 (Homo sapiens, UniProt P24941); assay: Cell free kinase inhibition assay; assay type: biochemical
T3 construct: purchased Carna Biosciences, Inc. (Kobe, Japan)

EPHB4 = biological target: T4, EPHB4 (Homo sapiens, UniProt P54760); assay: Cell free kinase inhibition assay; assay type: biochemical
T4 construct: purchased Carna Biosciences, Inc. (Kobe, Japan)
T4 sequence (P54760 16-987): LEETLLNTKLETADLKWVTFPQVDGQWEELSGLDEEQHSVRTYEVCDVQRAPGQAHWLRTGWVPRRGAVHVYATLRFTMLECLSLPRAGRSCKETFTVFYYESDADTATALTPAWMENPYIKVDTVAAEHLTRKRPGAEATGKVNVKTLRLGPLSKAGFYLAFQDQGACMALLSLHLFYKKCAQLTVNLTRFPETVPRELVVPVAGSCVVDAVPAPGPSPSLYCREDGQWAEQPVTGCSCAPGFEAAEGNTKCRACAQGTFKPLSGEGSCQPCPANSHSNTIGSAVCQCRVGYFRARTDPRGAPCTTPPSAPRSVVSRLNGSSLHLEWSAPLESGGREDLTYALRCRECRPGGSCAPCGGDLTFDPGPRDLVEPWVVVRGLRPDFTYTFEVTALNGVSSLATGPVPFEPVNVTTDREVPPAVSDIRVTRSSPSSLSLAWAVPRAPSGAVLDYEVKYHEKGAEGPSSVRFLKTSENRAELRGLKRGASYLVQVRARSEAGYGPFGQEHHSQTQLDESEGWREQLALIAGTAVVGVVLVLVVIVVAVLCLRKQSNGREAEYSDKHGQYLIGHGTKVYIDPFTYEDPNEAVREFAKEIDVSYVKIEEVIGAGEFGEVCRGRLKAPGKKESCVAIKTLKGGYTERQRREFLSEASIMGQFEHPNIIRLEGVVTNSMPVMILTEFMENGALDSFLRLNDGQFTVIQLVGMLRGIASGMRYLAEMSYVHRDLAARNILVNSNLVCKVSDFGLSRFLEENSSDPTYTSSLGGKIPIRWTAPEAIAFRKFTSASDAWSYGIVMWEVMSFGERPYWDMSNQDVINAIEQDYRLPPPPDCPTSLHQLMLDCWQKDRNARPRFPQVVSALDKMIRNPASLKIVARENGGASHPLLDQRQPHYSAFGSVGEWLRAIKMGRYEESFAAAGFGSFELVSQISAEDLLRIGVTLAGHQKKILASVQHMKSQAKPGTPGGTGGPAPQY

FAK = biological target: T5, FAK (Homo sapiens, UniProt Q05397); assay: Cell free kinase inhibition assay; assay type: biochemical
T5 construct: purchased Carna Biosciences, Inc. (Kobe, Japan)
T5 sequence (Q05397 whole entry): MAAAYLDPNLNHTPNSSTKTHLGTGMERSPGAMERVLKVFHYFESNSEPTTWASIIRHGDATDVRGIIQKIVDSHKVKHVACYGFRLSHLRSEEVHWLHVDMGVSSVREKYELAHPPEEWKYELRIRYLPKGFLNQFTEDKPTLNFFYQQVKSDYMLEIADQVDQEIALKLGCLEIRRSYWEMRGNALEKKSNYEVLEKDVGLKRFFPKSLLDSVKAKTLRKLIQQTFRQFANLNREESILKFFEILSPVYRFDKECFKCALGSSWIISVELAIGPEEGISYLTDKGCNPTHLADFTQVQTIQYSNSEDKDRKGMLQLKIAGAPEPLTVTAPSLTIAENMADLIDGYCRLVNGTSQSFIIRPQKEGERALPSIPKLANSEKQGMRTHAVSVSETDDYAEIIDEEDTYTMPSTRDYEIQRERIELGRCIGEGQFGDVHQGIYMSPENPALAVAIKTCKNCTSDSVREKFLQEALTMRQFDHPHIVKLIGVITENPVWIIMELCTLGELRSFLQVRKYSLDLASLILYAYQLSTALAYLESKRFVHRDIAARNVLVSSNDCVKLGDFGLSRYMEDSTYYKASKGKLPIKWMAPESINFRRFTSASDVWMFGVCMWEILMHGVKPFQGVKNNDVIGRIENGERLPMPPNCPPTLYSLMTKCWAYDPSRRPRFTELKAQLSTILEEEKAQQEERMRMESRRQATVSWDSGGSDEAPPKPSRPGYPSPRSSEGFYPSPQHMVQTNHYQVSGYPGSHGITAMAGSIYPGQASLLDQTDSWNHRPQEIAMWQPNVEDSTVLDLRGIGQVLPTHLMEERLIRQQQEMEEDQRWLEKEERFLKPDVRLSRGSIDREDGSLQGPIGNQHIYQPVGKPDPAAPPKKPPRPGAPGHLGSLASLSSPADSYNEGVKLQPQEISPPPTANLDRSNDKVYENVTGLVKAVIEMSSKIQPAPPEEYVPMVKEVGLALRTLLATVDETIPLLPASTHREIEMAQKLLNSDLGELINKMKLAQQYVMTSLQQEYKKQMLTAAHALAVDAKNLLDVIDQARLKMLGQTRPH

PRKX = biological target: T6, PRKX (Homo sapiens, UniProt P51817); assay: Cell free kinase inhibition assay; assay type: biochemical
T6 construct: purchased Carna Biosciences, Inc. (Kobe, Japan)
T6 sequence (P51817 whole entry): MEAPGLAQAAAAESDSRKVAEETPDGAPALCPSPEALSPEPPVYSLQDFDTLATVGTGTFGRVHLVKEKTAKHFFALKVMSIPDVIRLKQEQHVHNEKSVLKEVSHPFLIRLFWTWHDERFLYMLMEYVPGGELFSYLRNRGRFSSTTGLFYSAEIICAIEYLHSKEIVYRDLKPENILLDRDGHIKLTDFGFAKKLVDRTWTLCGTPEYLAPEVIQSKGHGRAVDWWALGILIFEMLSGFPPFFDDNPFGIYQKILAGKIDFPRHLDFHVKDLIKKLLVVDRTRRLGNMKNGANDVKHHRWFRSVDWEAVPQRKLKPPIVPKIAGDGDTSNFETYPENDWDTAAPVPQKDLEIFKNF

[1] = tested on: tumor microvessels in TT xenografts; assay: Microvessel density (CD31 immunohistochemistry) in xenografts; assay type: in vivo, nude mice; conditions: 10 or 100 mg/kg
Source text: (§1) Tumor tissues were resected from nude mice, embedded in Optimal Cutting Temperature (OCT) compound (Sakura Finetek Japan, Tokyo, Japan), frozen in dry ice-acetone, and then sectioned (8 μm), or they were embedded in paraffin, fixed overnight in immunohistochemical (IHC) Zinc Fixative (BD Biosciences), and then sectioned (6 μm). Tumor microvessels were stained by the indirect immunoperoxidase method with a rat anti-mouse CD31 monoclonal antibody (clone MEC13.3, BD Biosciences) and then visualized by using Vectastain ABC (Dako, Tokyo, Japan). Pericyte was stained by the indirect alkaline phosphatase method with an anti-α smooth muscle actin (SMA) antibody conjugated alkaline phosphatase (A 5691, Sigma-Aldrich) and visualized by using Simple Stain AP(R) (Nichirei Biosciences Inc, Tokyo, Japan). Adjacent sections were stained with Hematoxylin-Eosin. Microvessel density (MVD) was determined as described previously. Each section was scanned by using a microscope (VANOX AHBS3, Olympus, Tokyo, Japan) at low magnification to identify 5 areas with the highest densities of CD31-stained microvessels. The microvessels in the selected areas were then counted at 400x magnification. MVD was recorded as the number of microvessels per mm^2. In the DTC xenografts, the percentage of pericyte-covered microvessels was analyzed. Pericyte-covered vessels were identified by examining the colocalization of CD31- (endothelial cells-) positive vessels and αSMA- (pericytes-) positive cells. The number of pericyte-covered vessels was counted in the selected area and then compared with the total number of CD31-stained microvessels in the same area. The percentage of pericyte-covered microvessels was calculated as the number of pericyte-covered microvessels/total number of microvessels × 100 in the selected area. The MVD in the ATC xenograft models was determined by using the digital pathology system ScanScope XT (Aperio, Vista, CA). Briefly, CD31-stained whole tissue slices were scanned on the ScanScope system (Aperio) to generate high-resolution digital slides. By using a digital slide viewer, Aperio ImageScope (v10.0.36.1805, Aperio), 5 regions of interest (ROIs: each 500 μm square) were manually selected as areas with the highest densities of CD31-stained microvessels in each tumor slice. The number of microvessels in each ROI was measured by using Microvessel Analysis Algorithm v1.0 (Aperio), which automatically detects and quantifies microvessels on slides stained with endothelial markers. MVD was expressed as the number of microvessels per mm^2. […] The percentage of microvessel inhibition (%MVI) was calculated from the microvessel density (MVD) according to the following formula: [(1 − MVD of tumor in each compound-treated animal/Mean MVD of tumors in the vehicle control-treated group) × 100].

[2] = tested on: tumor microvessels in 5 DTC xenografts; assay: as above; assay type: in vivo, nude mice
Source text: as §1

[3] = tested on: tumor microvessels in 5 ATC xenografts; assay: as above; assay type: in vivo, nude mice; conditions: all 5 ATC xenograft models, 10 and 100 mg/kg
Source text: as §1

AKT1 = biological target: T7, AKT1 (Homo sapiens, UniProt P31749); assay: Cell free kinase inhibition assay; assay type: biochemical
T7 construct: purchased Carna Biosciences, Inc. (Kobe, Japan)
T7 sequence (P31749 whole entry): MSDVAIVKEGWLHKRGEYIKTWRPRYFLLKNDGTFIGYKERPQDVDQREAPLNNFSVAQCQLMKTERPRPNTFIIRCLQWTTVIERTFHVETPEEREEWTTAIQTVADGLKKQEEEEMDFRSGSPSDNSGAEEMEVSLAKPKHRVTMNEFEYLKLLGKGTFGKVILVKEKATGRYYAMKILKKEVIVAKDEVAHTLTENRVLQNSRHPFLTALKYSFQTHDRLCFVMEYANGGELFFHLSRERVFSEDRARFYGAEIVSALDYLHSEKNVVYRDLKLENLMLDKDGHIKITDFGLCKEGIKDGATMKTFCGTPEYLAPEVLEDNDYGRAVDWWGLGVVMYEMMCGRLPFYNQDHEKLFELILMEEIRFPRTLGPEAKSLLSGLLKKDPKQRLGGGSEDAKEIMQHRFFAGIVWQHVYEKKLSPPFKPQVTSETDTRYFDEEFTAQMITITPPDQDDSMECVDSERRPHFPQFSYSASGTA

[4] = tested on: human thyroid cancer cell lines; assay: Antiproliferation assay, panel of 11 cell lines; assay type: cell-based; conditions: 9 out of the 11 cell lines, in vitro antiproliferative
Description: The human DTC cell lines K1, FTC-133, FTC-236, FTC-238, and RO82-W-1 and the human thyroid follicular epithelial cell line Nthy-ori 3-1 were obtained from DS Pharma Biomedical Co., Ltd. (Osaka, Japan). The human MTC cell line TT was obtained from the American Type Culture Collection (Manassas, VA). The human ATC cell lines 8305C, 8505C, HTC/C3, KHM-5M, and TCO-1 were obtained from the Japanese Collection of Research Bioresources Cell Bank (Osaka, Japan). […]
Cells (1,000–3,000/well) were seeded and cultured in 96-well culture plates. […] Cell numbers were determined by using WST-8 (Dojindo, Kumamoto, Japan); 10 μL of WST-8 was added to each well, and absorbance was measured at a wavelength of 450 nm and compared with a reference measurement at 660 or 665 nm by using an MTP-500 microplate reader (Corona Electric, Ibaraki, Japan) or an EnVision Multilabel Reader (Perkin Elmer, Turku, Finland). […]

TT cells = assay: Antiproliferation assay (WST-8); assay type: cell-based; conditions: Homo sapiens, 240 h; TT (MTC), antiproliferative, 10 days; read-out: IC50

T1 sequence (P16234 24-1089 V561D): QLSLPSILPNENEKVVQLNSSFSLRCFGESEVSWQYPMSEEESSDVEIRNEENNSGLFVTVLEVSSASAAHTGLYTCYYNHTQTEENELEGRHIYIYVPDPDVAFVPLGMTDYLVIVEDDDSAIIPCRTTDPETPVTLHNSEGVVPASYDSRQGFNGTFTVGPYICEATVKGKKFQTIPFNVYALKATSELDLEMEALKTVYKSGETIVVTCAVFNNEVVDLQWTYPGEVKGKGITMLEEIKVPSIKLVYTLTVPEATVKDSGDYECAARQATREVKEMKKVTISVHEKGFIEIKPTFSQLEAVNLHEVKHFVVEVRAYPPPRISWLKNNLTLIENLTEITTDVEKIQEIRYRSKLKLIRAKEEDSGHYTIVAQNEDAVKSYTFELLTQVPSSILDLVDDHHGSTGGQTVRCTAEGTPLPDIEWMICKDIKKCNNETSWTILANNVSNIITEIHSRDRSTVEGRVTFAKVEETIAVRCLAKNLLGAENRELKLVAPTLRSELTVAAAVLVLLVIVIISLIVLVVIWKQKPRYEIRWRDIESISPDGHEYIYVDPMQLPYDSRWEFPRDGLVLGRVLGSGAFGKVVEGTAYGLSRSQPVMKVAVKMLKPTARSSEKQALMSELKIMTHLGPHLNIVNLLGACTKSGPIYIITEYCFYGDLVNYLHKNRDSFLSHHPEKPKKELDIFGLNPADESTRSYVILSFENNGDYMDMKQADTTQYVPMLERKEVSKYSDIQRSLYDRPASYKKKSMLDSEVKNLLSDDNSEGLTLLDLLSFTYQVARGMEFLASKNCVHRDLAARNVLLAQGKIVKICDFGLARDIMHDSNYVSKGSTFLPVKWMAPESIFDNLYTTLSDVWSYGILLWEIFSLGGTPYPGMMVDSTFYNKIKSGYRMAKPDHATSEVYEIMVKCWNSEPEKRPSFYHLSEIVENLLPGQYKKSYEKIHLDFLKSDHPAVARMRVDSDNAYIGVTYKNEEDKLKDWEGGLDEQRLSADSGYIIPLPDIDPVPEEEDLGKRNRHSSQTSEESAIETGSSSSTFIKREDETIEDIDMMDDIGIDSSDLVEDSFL

COc1cc2nccc(Oc3ccc(NC(=O)NC4CC4)c(Cl)c3)c2cc1C(N)=O [Lenvatinib, Lenvatinib mesilate]
IC50 (PDGFRα(V561D)): 0.025 µM | IC50 (FGFR4): 0.043 µM | IC50 (TCO-1 cells): 28 µM | IC50 (CDK2/CycE1): > 10 µM | IC50 (EPHB4): 4.6 µM | IC50 (FAK): > 10 µM | IC50 (PRKX): > 10 µM | MVD [1]: did not decrease the MVDs | MVD ([2]; 10 mg/kg): significantly decreased in 4 of the 5 DTC xenografts | MVD ([2]; 100 mg/kg, all of the 5): significantly decreased | MVD [3]: decreased significantly | IC50 (AKT1): > 10 µM | IC50 [4]: > 10 µM | IC50 (TT cells): 0.078 µM
